The record followed here is publication PMC10169861, “Structural mechanism of human oncochannel TRPV6 inhibition by the natural phytoestrogen genistein” (Nature Communications, 2023).

Changes are numbered by the printed parent chain. Where “and” joins values, the source holds several entries; their conditions need not be identical. Equal entries are not always repeated.

As a reminder, the stoichiometry N is the number of molecules, sites or subunits per partner or assembly. By IC50 is commonly meant the concentration at which inhibition is half-maximal. What is called inhibition is the drop in the measured response relative to a control, in per cent.

Test [1] addresses human TRPV6 (human). Kind of test: cryo-EM structure; purified hTRPV6 in 150 mM NaCl, 20 mM Tris-HCl pH 8.0, 1 mM βME, 0.01% GDN, 0.001% CHS, with 2 mM genistein; two populations of particles: open (C4, 2.71 Å) and genistein-bound (C1, 2.66 Å).
Test [2] has as its target T1, H582A-H587A mutant TRPV6 (Homo sapiens, UniProt Q9H1D0, H622A/H627A).
T1 construct: Full-length wild-type or mutant human TRPV6 was expressed in HEK 293S cells as described above; expressed in transfected cells; host or cells: HEK 293S GnTI- cells, baculovirus (BacMam) transduction
T1 sequence (Q9H1D0 41-765 H622A/H627A limits assumed): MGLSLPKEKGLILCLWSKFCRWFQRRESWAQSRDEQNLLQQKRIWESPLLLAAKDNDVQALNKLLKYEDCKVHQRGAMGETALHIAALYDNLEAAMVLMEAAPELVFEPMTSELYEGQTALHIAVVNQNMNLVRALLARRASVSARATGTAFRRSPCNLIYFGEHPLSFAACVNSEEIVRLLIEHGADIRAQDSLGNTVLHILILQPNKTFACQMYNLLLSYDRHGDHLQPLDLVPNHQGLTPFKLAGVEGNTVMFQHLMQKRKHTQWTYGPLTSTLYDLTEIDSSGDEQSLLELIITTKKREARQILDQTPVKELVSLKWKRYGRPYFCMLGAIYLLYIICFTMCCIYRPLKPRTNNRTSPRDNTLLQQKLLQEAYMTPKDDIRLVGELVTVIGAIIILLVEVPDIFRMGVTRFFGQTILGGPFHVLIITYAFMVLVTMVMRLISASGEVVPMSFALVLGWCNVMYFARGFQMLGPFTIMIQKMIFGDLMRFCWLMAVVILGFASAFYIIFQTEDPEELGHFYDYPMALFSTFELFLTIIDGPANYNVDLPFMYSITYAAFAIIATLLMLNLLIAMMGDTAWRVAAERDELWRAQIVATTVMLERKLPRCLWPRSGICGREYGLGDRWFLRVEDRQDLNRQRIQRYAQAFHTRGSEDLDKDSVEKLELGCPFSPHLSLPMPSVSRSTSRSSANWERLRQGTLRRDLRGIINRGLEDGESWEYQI
Kind of test: Fura-2-based measurement of Ca2+ uptake, H582A-H587A mutant channels. The test is classed as cell-based. Particulars: for normalized change in F340/F380 (Ca2+ uptake relative to no genistein): H582A-H587A.

Test [3] has as its target T2, H582A mutant TRPV6 (Homo sapiens, UniProt Q9H1D0, H622A).
T2 construct: Full-length wild-type or mutant human TRPV6 was expressed in HEK 293S cells as described above; expressed in transfected cells; host or cells: HEK 293S GnTI- cells, baculovirus (BacMam) transduction
T2 sequence (Q9H1D0 41-765 H622A limits assumed): T1 sequence (Q9H1D0 41-765 H622A/H627A limits assumed) with A587H
The experiment in a line: Fura-2-based measurement of Ca2+ uptake, H582A mutant channels. The test is classed as cell-based. Particulars: for normalized change in F340/F380 (Ca2+ uptake relative to no genistein): H582A.

The target in test [4] is T3, H587A mutant TRPV6 (Homo sapiens, UniProt Q9H1D0, H627A).
T3 construct: Full-length wild-type or mutant human TRPV6 was expressed in HEK 293S cells as described above; expressed in transfected cells; host or cells: HEK 293S GnTI- cells, baculovirus (BacMam) transduction
T3 sequence (Q9H1D0 41-765 H627A limits assumed): T1 sequence (Q9H1D0 41-765 H622A/H627A limits assumed) with A582H
Kind of test: Fura-2-based measurement of Ca2+ uptake, H587A mutant channels. The test is classed as cell-based. To be noted: for normalized change in F340/F380 (Ca2+ uptake relative to no genistein): H587A.

Test [5] has as its target T4, wild-type human TRPV6 (hTRPV6) (Homo sapiens, UniProt Q9H1D0).
T4 construct: Full-length wild-type or mutant human TRPV6 was expressed in HEK 293S cells as described above; expressed in transfected cells; host or cells: HEK 293S GnTI- cells, baculovirus (BacMam) transduction
T4 sequence (Q9H1D0 41-765 limits assumed): T1 sequence (Q9H1D0 41-765 H622A/H627A limits assumed) with A582H, A587H
Kind of test: Whole-cell patch-clamp recording of hTRPV6-mediated currents in HEK 293S cells. The test is classed as cell-based. Particulars: for TRPV6-mediated current amplitude at −60 mV, normalized to the value in the absence of genistein: WT.

The target in test [6] is T4, wild-type human TRPV6 (hTRPV6). The experiment in a line: Fura-2-based ratiometric measurement of Ca2+ uptake in hTRPV6-expressing HEK 293S cells. The test is classed as cell-based. Particulars: for normalized change in F340/F380 (Ca2+ uptake relative to no genistein): WT.
The mark [7] stands for this setting: Conc 10, individual experiments.
Where [8] appears, read: Conc 30, individual experiments.
The mark [9] stands for this setting: Conc 100, individual experiments.
[10] abbreviates: Conc 300, individual experiments.
[11] abbreviates: Conc 1000, individual experiments.
Where [12] appears, read: Conc 3000, individual experiments.
Where [13] appears, read: Conc 10000, individual experiments.

For human TRPV6 (natural protein), in test [1], the stoichiometry N worked out at 4.
With `O=c1c(-c2ccc(O)cc2)coc2cc(O)cc(O)c12` [genistein, 4′,5,7-trihydroxyisoflavone], the IC50 in test [2] amounted to 318 ± 45 µM; in test [3], 184 ± 24 µM; in test [4] it was 267 ± 29 µM; in test [5], 40.7 ± 2.6 µM; in test [6] (wild-type, 10 mM Ca2+ after pre-incubation, mean ± SEM, n = 3, read-out: IC50, inhibition of hTRPV6-mediated Ca2+ uptake), 113 µM. The “Hill coefficient nHill” value in test [2] (H582A-H587A mutant, n = 3) came out at 0.71 ± 0.06; in test [3] (H582A mutant, n = 3) it was 0.73 ± 0.04; in test [4] (H587A mutant, n = 3), 0.67 ± 0.03. For the same molecule, the “normalized change in F340/F380 (Ca2+ uptake relative to no genistein)” value is 0.8831 and 0.8274 and 0.7934 in test [2] (setting [7]); 0.9307 and 0.8133 and 0.7372 in test [2] (setting [8]); 0.6996 and 0.5804 and 0.6176 in test [2] (setting [9]); 0.6004 and 0.5392 and 0.6135 and 0.4739 in test [2] (setting [10]); 0.3135 and 0.3303 in test [2] (setting [11]); 0.1423 and 0.1604 and 0.1695 in test [2] (setting [12]). Also, the “normalized change in F340/F380 (Ca2+ uptake relative to no genistein)” value is 0.08246 and 0.05437 and 0.05709 in test [2] (setting [13]); 1.0287 and 0.8943 and 0.9077 in test [3] (Conc 3, individual experiments); 0.885 and 0.8976 and 0.8985 in test [3] (setting [7]); 0.8976 and 0.8451 and 0.809 in test [3] (setting [8]); 0.6519 and 0.7074 and 0.5784 in test [3] (setting [9]); 0.3755 and 0.336 and 0.3944 in test [3] (setting [10]). Besides, the “normalized change in F340/F380 (Ca2+ uptake relative to no genistein)” value in test [3] (setting [11]) was 0.155 and 0.378 and 0.368; in test [3] (setting [12]) it was 0.1504 and 0.2134 and 0.1508; in test [4] (setting [7]), 0.9155 and 0.8981 and 0.9014; in test [4] (setting [8]) it was 0.7349 and 0.8633 and 0.7848; in test [4] (setting [9]), 0.5614 and 0.5516 and 0.49; in test [4] (setting [10]), 0.505 and 0.498 and 0.5741. In addition, the “normalized change in F340/F380 (Ca2+ uptake relative to no genistein)” value in test [4] (setting [11]) is 0.2958 and 0.3277 and 0.2981; in test [4] (setting [12]), 0.1683 and 0.1914 and 0.1575; in test [4] (setting [13]), 0.08605 and 0.071 and 0.06959; in test [6] (Conc 10 (µM per Fig. 1c), individual experiments), 0.9427 and 0.8061 and 0.8429; in test [6] (setting [8]), 0.7049 and 0.7764 and 0.7537; in test [6] (setting [9]) it was 0.5343 and 0.4706 and 0.5414. Further, the “normalized change in F340/F380 (Ca2+ uptake relative to no genistein)” value in test [6] (setting [10]) was 0.3064 and 0.3178 and 0.351; in test [6] (setting [11]), 0.1486 and 0.1458 and 0.1663; in test [6] (setting [12]), 0.07643 and 0.09271. Further, in test [5] (HEK293S, 50 µM genistein, –60 mV membrane potential, mean ± SEM, n = 13, read-out: inhibition of the hTRPV6-mediated current), the inhibition at 50 µM amounted to 54 ± 4%. Besides, the “TRPV6-mediated current amplitude at −60 mV, normalized to the value in the absence of genistein” value in test [5] (Conc 6.25 (µM per Supplementary Fig. 1), individual measurements) was 0.8818 and 0.9418 and 0.9228 and 0.9734 and 0.9342 and 0.9778 and 0.9793; in test [5] (Conc 12.5, individual measurements), 0.8695 and 0.8933 and 0.8898 and 0.8819 and 0.904 and 0.9294 and 0.929; in test [5] (Conc 25, individual measurements), 0.744 and 0.6559 and 0.7679 and 0.6876 and 0.7485 and 0.5641 and 0.5617; in test [5] (Conc 50, individual measurements) it was 0.3726 and 0.4985 and 0.3764 and 0.4722 and 0.3722 (2×). Further, in test [5] (current amplitude at −60 mV, logistic fit, n = 7), the “Hill coefficient nHill, current inhibition” value is 1.80 and 1.80 ± 0.13. Further, in test [6] (wild-type, n = 3), the “Hill coefficient nHill, inhibition of Ca2+ uptake” value was 0.77 ± 0.02.
